From patent US8399482B2, “6-substituted isoquinolines and isoquinolinones” (Sanofi, priority 2008, dated 2013) come the findings set out here.

What all share (format): biochemical
The target in assay [1] is T1, recombinant human PKG1-beta (Homo sapiens, UniProt Q13976).
T1 construct: PKG1-beta (full-length, with N-terminal His-tag); His-tag (N); purchased Millipore GmbH, Schwalbach, Germany
T1 sequence (Q13976 1-686 isoform Q13976-2): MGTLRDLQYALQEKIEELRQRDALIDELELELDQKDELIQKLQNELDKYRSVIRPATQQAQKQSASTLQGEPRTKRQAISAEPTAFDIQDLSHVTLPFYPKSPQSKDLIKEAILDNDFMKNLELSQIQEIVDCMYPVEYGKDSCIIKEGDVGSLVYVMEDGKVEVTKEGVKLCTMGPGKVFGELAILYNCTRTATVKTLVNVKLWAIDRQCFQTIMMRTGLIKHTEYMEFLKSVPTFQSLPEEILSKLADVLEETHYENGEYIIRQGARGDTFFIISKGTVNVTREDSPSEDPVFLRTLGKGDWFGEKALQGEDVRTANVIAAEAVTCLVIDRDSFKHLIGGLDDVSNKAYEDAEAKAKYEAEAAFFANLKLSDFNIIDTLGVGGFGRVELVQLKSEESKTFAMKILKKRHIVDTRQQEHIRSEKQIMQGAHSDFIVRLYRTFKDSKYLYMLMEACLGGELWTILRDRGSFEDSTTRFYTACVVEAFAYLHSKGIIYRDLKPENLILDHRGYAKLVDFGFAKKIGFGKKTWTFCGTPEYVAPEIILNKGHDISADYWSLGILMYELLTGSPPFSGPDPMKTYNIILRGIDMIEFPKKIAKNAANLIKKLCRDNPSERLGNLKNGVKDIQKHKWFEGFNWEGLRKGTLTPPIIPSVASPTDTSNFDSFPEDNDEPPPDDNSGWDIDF
The assay can be described thus: Determination of Protein Kinase G inhibition (selectivity). Conditions: from IC50 values. Here is the method:
(§1) 2) Determination of Protein Kinase a and Protein Kinase G Inhibition
(§2) To measure PKA and PKG1-beta inhibition, IC50 values were determined according to the following protocol:
(§3) Active recombinant human PKG1-beta (full-length, with N-terminal His-tag) was purchased from Millipore GmbH, Schwalbach, Germany. Active recombinant human PKA (residues 1-351, N-terminal His-tag) was obtained from Invitrogen, Karlsruhe, Germany. The peptide substrate, Fluorescein-[…]-COOH, was obtained from JPT Peptide Technologies, Berlin, Germany. Adenosine-5′-triphosphate (ATP), bovine serum albumine (BSA), dimethylsulphoxide (DMSO), 4-(2-Hydroxyethyl)piperazine-1-ethanesulfonic acid (Hepes), Brij-35, dithiothreitol (DTT) and Pluronic F-68 were purchased from Sigma-Aldrich, Munich, Germany. Tris(hydroxymethyl)-aminomethane (Tris), magnesium chloride, NaOH, 1M HCl and EDTA were obtained from Merck Biosciences, Darmstadt, Germany. “Complete” protease inhibitor was from Roche Diagnostics, Mannheim, Germany. Test compounds were diluted to the appropriate concentrations in buffer 1 (25 mM Tris-HCl, pH 7.4, 5 mM MgCl2, 2 mM DTT, 0.02% (w/v) BSA, 0.01% Pluronic F-68 and 3% DMSO). PKG1-beta and PKA were diluted to concentrations of 150 ng/ml and 30 ng/ml, respectively, in buffer 2. The peptide substrate and ATP were diluted to concentrations of 3 μM and 120 μM, respectively, in the buffer 2. Two μl of the compound solution were mixed with 2 μl of the diluted enzyme in a 384-well small volume microtiter plate (Greiner, Bio-One, Frickenhausen, Germany), and the kinase reaction was initiated by addition of 2 μl of the solution containing peptide substrate and ATP. After 60 min incubation at 32° C., the reaction was stopped by addition of 20 μl of a solution containing 100 mM Hepes-NaOH, pH 7.4, 0.015% (v/v) Brij-35, 45 mM EDTA and 0.227% chip coating reagent 1 (Caliper Lifescience Inc, Hopkinton, Mass.). Phosphorylation of the substrate peptide was then detected on a Caliper 3000 instrument essentially as described by Pommereau et al (J. Biomol. Screening 9(5), 409-416, 2004). Separation conditions were as follows: Pressure −1.3 psi, upstream voltage −1562 V, downstream voltage −500 V, sample sip time 200 ms, Positive controls (buffer 1 instead of compound) and negative controls (buffer 1 instead of compound and buffer 2 instead of kinase solution) were run in parallel on each plate. The following products/compounds were tested in said assay by using the respective form (salt or free base) obtained as in the examples described above and the following activities were measured.

The next assay addresses T2, recombinant human PKA (Homo sapiens, UniProt P17612).
T2 construct: recombinant human PKA (residues 1-351, N-terminal His-tag); His-tag (N); purchased Invitrogen, Karlsruhe, Germany
In words: Determination of Protein Kinase A inhibition (selectivity). Conditions: from IC50 values. The method, then: as §1, §2, §3

The target of assay [2] is T3, human recombinant ROCK II (Homo sapiens, UniProt O75116).
T3 construct: recombinant human ROCK-II residues 11-552; His6 (N); purchased Millipore GmbH, Schwalbach, Germany
T3 sequence (O75116 11-552): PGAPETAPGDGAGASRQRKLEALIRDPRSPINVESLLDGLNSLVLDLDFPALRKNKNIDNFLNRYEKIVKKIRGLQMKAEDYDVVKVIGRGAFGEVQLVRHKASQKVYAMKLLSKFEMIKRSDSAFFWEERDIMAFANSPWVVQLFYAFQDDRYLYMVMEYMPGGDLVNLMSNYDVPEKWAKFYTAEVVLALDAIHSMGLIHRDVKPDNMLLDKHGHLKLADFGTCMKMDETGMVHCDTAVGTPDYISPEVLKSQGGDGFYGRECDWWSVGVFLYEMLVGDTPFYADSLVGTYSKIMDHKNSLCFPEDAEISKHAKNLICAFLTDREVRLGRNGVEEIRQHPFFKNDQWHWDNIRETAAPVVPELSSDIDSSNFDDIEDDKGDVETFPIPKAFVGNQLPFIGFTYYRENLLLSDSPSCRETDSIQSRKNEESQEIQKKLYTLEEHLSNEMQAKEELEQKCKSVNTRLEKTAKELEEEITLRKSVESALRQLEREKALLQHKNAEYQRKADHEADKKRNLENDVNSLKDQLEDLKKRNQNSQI
The assay can be described thus: Determination of Rho kinase inhibition (ROCK II, Caliper peptide phosphorylation assay). Conditions: respective form (salt or free base) as obtained in the examples, 60 min at 32° C. The procedure, abridged: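 Enzyme: active N-terminal His6-tagged recombinant human ROCK-II, residues 11-552. Substrate: a fluorescein-labelled peptide, with ATP. IC50 values were determined.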

As a reminder, the IC50 is the concentration that gives 50% inhibition. As for `CCC(N)C1(CC(C)C)CCC(Oc2cc3cc[nH]c(=O)c3cc2Cl)CC1` (single isomer, unassigned) [Example 28, 6-[4-(1-Amino-propyl)-4-isobutyl-cyclohexyloxy]-7-chloro-2H-isoquinolin-1-one], the “Selectivity against PKG” value in assay [1] is given as more than 10 fold. Further, the “Selectivity against PKA” value at recombinant human PKA is more than 10 fold. The IC50 in assay [2] was 100 to 1000 nM.

As to `CCC(N)C1(Cc2ccccc2)CCC(Oc2cc3cc[nH]c(=O)c3cc2Cl)CC1` (single isomer, unassigned) [Example 30, 6-[4-(1-Amino-propyl)-4-benzyl-cyclohexyloxy]-7-chloro-2H-isoquinolin-1-one], the “Selectivity against PKG” value in assay [1] is more than 10 fold. Further, the “Selectivity against PKA” value on recombinant human PKA was more than 300 fold. The IC50 in assay [2] was 10 to 100 nM.

On to `CC(C)C1(C(N)c2cncs2)CCC(Oc2cc3cc[nH]c(=O)c3cc2Cl)CC1` (single isomer, unassigned) [Example 47, 6-[4-(Amino-thiazol-5-yl-methyl)-4-isopropyl-cyclohexyl-oxy]-7-chloro-2H-isoquinolin-1-one], for which the “Selectivity against PKG” value in assay [1] is recorded as more than 300 fold. Further, on recombinant human PKA, the “Selectivity against PKA” value is on record as more than 300 fold. Further, the IC50 in assay [2] is 10 to 100 nM.

Consider `CCC(N)C1(C(F)(F)F)CCC(Oc2cc3cc[nH]c(=O)c3cc2Cl)CC1` (single isomer, unassigned) [Example 103, 6-[4-(1-Amino-propyl)-4-trifluoromethyl-cyclohexyloxy]-7-chloro-2H-isoquinolin-1-one], for which, in assay [1], the “Selectivity against PKG” value was more than 1000 fold. The “Selectivity against PKA” value at recombinant human PKA is reported as more than 1000 fold. Moreover, in assay [2], the IC50 is not above 10 nM.

As for `CCC(N)C1(C2CCOCC2)CCC(Oc2cc3cc[nH]c(=O)c3cc2Cl)CC1` (single isomer, unassigned) [Example 106], the “Selectivity against PKG” value in assay [1] is given as more than 1000 fold. The “Selectivity against PKA” value on recombinant human PKA is on record as more than 1000 fold. Further, the IC50 in assay [2] is not above 10 nM.

In the case of `CCC(N)C1(CC)CCC(Oc2cc3cc[nH]c(=O)c3cc2Cl)CC1` (single isomer, unassigned) [Example 107], the “Selectivity against PKG” value in assay [1] was more than 1000 fold. In addition, the “Selectivity against PKA” value on recombinant human PKA was more than 1000 fold. Moreover, in assay [2], the IC50 is not above 10 nM.

As to `CCC(N)C1(CC)CCC(Oc2cc3cc[nH]c(=O)c3cc2Cl)CC1` (single isomer, unassigned) [Example 108], the “Selectivity against PKG” value in assay [1] is recorded as more than 10 fold. In addition, on recombinant human PKA, the “Selectivity against PKA” value is reported as more than 1000 fold. In assay [2], the pIC50 result is on record as “+++++++ (8.0 ≦ pIC50)”.

With `CCC(N)[C@]1(CC)CC[C@H](Oc2cc3cc[nH]c(=O)c3cc2Cl)CC1` (stereo partly drawn) [Example 34, cis-6-[4-(1-Amino-propyl)-4-ethyl-cyclohexyloxy]-7-chloro-2H-isoquinolin-1-one], the “Selectivity against PKG” value in assay [1] was more than 300 fold. Moreover, the “Selectivity against PKA” value on recombinant human PKA is reported as more than 1000 fold. Besides, the IC50 in assay [2] was not above 10 nM.

With `CCCC(N)[C@]1(C(C)C)CC[C@H](Oc2cc3cc[nH]c(=O)c3cc2Cl)CC1` (stereo partly drawn) [Example 35, cis-6-[4-(1-Amino-butyl)-4-isopropyl-cyclohexyloxy]-7-chloro-2H-isoquinolin-1-one], the “Selectivity against PKG” value in assay [1] is recorded as more than 10 fold. The “Selectivity against PKA” value at recombinant human PKA is recorded as more than 300 fold. Also, the IC50 in assay [2] is 10 to 100 nM.

`CC[C@]1(C(C)N)CC[C@@H](Oc2cc3cc[nH]c(=O)c3cc2C)CC1` (stereo partly drawn) [Example 37, cis-6-[4-(1-Amino-ethyl)-4-ethyl-cyclohexyloxy]-7-methyl-2H-isoquinolin-1-one]: in assay [1], the “Selectivity against PKG” value is more than 100 fold. Besides, the “Selectivity against PKA” value at recombinant human PKA is given as more than 300 fold. In assay [2], the IC50 was 10 to 100 nM.

Turning to `CCCC[C@]1(C(N)CC)CC[C@@H](Oc2cc3cc[nH]c(=O)c3cc2Cl)CC1` (stereo partly drawn) [Example 38, cis-6-[4-(1-Amino-propyl)-4-butyl-cyclohexyloxy]-7-chloro-2H-isoquinolin-1-one], the “Selectivity against PKG” value in assay [1] is more than 300 fold. Also, on recombinant human PKA, the “Selectivity against PKA” value is reported as more than 1000 fold. The IC50 in assay [2] is not above 10 nM.

With `CCC(N)[C@]1(CC)CC[C@H](Oc2cc3cc[nH]c(=O)c3cc2F)CC1` (stereo partly drawn) [Example 50, cis-6-[4-(1-Amino-propyl)-4-ethyl-cyclohexyloxy]-7-fluoro-2H-isoquinolin-1-one], the “Selectivity against PKG” value in assay [1] was more than 10 fold. For the same compound, the “Selectivity against PKA” value at recombinant human PKA is listed as more than 300 fold. Also, the IC50 in assay [2] is 10 to 100 nM.

As for `CCC(N)[C@]1(CC)CC[C@H](Oc2cc3cc[nH]c(=O)c3cc2C)CC1` (stereo partly drawn) [Example 52, cis-6-[4-(1-Amino-propyl)-4-ethyl-cyclohexyloxy]-7-methyl-2H-isoquinolin-1-one], the “Selectivity against PKG” value in assay [1] was more than 10 fold. Besides, at recombinant human PKA, the “Selectivity against PKA” value is more than 100 fold. Besides, the IC50 in assay [2] is 100 to 1000 nM.

Regarding `CCC(N)[C@]1(CC)CC[C@H](Oc2c(C)cc3c(=O)[nH]ccc3c2C)CC1` (stereo partly drawn) [Example 54, cis-6-[4-(1-Amino-propyl)-4-ethyl-cyclohexyloxy]-5,7-dimethyl-2H-isoquinolin-1-one], in assay [1], the “Selectivity against PKG” value is recorded as more than 10 fold. On recombinant human PKA, the “Selectivity against PKA” value is more than 10 fold. In addition, the IC50 in assay [2] was 100 to 1000 nM.

In the case of `CCC(N)[C@]1(OC)CC[C@H](Oc2cc3cc[nH]c(=O)c3cc2Cl)CC1` (stereo partly drawn) [Example 58, cis-6-[4-(1-Amino-propyl)-4-methoxy-cyclohexyloxy]-7-chloro-2H-isoquinolin-1-one], in assay [1], the “Selectivity against PKG” value is more than 300 fold. Further, the “Selectivity against PKA” value on recombinant human PKA is more than 300 fold. For the same compound, the 50% inhibitory concentration (IC50) in assay [2] is 10 to 100 nM.

Consider `CCC(N)[C@]1(OC)CC[C@@H](Oc2cc3cc[nH]c(=O)c3cc2Cl)CC1` (stereo partly drawn) [Example 59, trans-6-[4-(1-Amino-propyl)-4-methoxy-cyclohexyloxy]-7-chloro-2H-isoquinolin-1-one], for which the “Selectivity against PKG” value in assay [1] is more than 100 fold. The “Selectivity against PKA” value on recombinant human PKA is on record as more than 100 fold. Besides, the IC50 in assay [2] was 10 to 100 nM.

Turning to `C[C@]1(C(N)c2ccccc2)CC[C@@H](Oc2cc3cc[nH]c(=O)c3cc2Cl)CC1` (stereo partly drawn) [Example 61, cis-6-[4-(Amino-phenyl-methyl)-4-methyl-cyclohexyloxy]-7-chloro-2H-isoquinolin-1-one], the “Selectivity against PKG” value in assay [1] is reported as more than 300 fold. Besides, on recombinant human PKA, the “Selectivity against PKA” value was more than 100 fold. The concentration for half-maximal inhibition (IC50) in assay [2] is 10 to 100 nM.

`CCCC(N)[C@]1(C)CC[C@H](Oc2cc3cc[nH]c(=O)c3cc2Cl)CC1` (stereo partly drawn) [Example 62, cis-6-[4-(1-Amino-butyl)-4-methyl-cyclohexyloxy]-7-chloro-2H-isoquinolin-1-one]: the “Selectivity against PKG” value in assay [1] is listed as more than 100 fold. The “Selectivity against PKA” value on recombinant human PKA is reported as more than 1000 fold. Further, the IC50 in assay [2] is not above 10 nM.
